Data: US20240294464A1, “SYNTHESIS OF RESTRAINED COMPLEXING AGENTS” (Genentech, Inc., priority 2021, published 2024)

Assay: stability of compound 1 in prep-HPLC fractions
Assay type: physicochemical
Settings: prep-HPLC fractions (0.01% TFA aqueous solution / acetonitrile); needs to freeze immediately for lyophilization
From the text: The crude compound 1 was purified by prep-HPLC (Mobile phase A: 0.01% TFA aqueous solution (v/v); Mobile phase B: Acetonitrile) and the purified product was lyophilized to give compound 1 with 98 A % HPLC purity as a white solid in 51% yield over two steps. (Note: The compound 1 in prep-HPLC fractions is not stable, and it needs to freeze immediately for lyophilization. The residual TFA in solid is 0.1 equiv to E)

- stability in prep-HPLC fractions: not stable
Structure (SMILES): O=C(O)CN(CC(=O)O)[C@@H]1CCCC[C@H]1N(CC(=O)O)Cc1ccc(CC(=O)Oc2c(F)c(F)cc(F)c2F)cc1 [compound 1, 2,2′-(((1R,2R)-2-((carboxymethyl)(4-(2-oxo-2-(2,3,5,6-tetrafluorophenoxy)ethyl)benzyl)amino)cyclohexyl)azanediyl)diacetic acid]
